Like-named read-outs stand apart in the source and are kept apart here.
System: four pancreatic cancer cell lines (AsPC1, Hs766T, MiaPaCa2, Panc1)
Assay type: cell-based, human
Text: These include a large panel of novel targets for silencing by histone deacetylation including several known tumor suppressor genes or cell cycle-regulatory genes (ING1, p57KIP2, CHES1, CHFR, GADD45B, and others).

SMILES: CC(/C=C/C(=O)NO)=C\[C@@H](C)C(=O)c1ccc(N(C)C)cc1 [TSA, trichostatin A]
- changes in phenotypes during the treatment period: did not result in apparent changes in their phenotypes
- Induced by TSA alone? (ANGPT2): No
- Induced by TSA alone? (BARD1): No
- Induced by TSA alone? (BIK): Yes
- Induced by TSA alone? (BNIP3): Yes
- Induced by TSA alone? (BNIP3 (Table 3)): Yes
- Induced by TSA alone? (BST2): No
- Induced by TSA alone? (BST2 (Table 3)): No
- Induced by TSA alone? (CACNA1G): Yes
- Induced by TSA alone? (CASP5): No
- Induced by TSA alone? (CCNA1): No
- Induced by TSA alone? (CCNE2): No
- Induced by TSA alone? (CDC25A): No
- Induced by TSA alone? (CDH3): No
- Induced by TSA alone? (CDKN1A (p21)): No
- Induced by TSA alone? (CDKN1C): Yes
- Induced by TSA alone? (CDKN2A (p16)): No
- Induced by TSA alone? (CLDN5): No
- Induced by TSA alone? (CLDN7): No
- Induced by TSA alone? (CRIP 1): Yes
- Induced by TSA alone? (CRLF1): Yes
- Induced by TSA alone? (CSF1): Yes
- Induced by TSA alone? (CSF3): No
- Induced by TSA alone? (Cdc42 effector protein 2): No
- Induced by TSA alone? (DAPK2): No
- Induced by TSA alone? (DAZL): Yes
- Induced by TSA alone? (DEAD box RNA helicase (VASA)): No
- Induced by TSA alone? (DR3): No
- Induced by TSA alone? (FOXE1): No
- Induced by TSA alone? (GAGE1): Yes
- Induced by TSA alone? (GAGE2): Yes
- Induced by TSA alone? (GAGE3): Yes
- Induced by TSA alone? (GAGE4): Yes
- Induced by TSA alone? (GAGE6): Yes
- Induced by TSA alone? (GAGE7): Yes
- Induced by TSA alone? (GAGE7B): Yes
- Induced by TSA alone? (GAS1): No
- Induced by TSA alone? (HOXA1): No
- Induced by TSA alone? (HSPA1A): Yes
- Induced by TSA alone? (IGF2): No
- Induced by TSA alone? (IL1R1): No
- Induced by TSA alone? (ISG20): No
- Induced by TSA alone? (ITM3): Yes
- Induced by TSA alone? (JPH3): No
- Induced by TSA alone? (KLK10): No
- Induced by TSA alone? (KRT17): No
- Induced by TSA alone? (LDOC1): No
- Induced by TSA alone? (LHX1): No
- Induced by TSA alone? (LHX2): No
- Induced by TSA alone? (LIPC): No
- Induced by TSA alone? (MAGE1): Yes
- Induced by TSA alone? (MAGEC1): Yes
- Induced by TSA alone? (MATN1): Yes
- Induced by TSA alone? (MLH1): Yes
- Induced by TSA alone? (NEFH): Yes
- Induced by TSA alone? (NK4): Yes
- Induced by TSA alone? (NPTX2): Yes
- Induced by TSA alone? (PAX6): No
- Induced by TSA alone? (PAX6 (Table 3)): No
- Induced by TSA alone? (PDYN): No
- Induced by TSA alone? (PIG11 (Table 3)): No
- Induced by TSA alone? (PLAT): No
- Induced by TSA alone? (PLEK2): No
- Induced by TSA alone? (PRG1): Yes
- Induced by TSA alone? (S100A2): No
- Induced by TSA alone? (S100P): No
- Induced by TSA alone? (SALL1): No
- Induced by TSA alone? (SARP2): No
- Induced by TSA alone? (SARP2 (Table 3)): No
- Induced by TSA alone? (SGCE): Yes
- Induced by TSA alone? (SMARCA1): No
- Induced by TSA alone? (SPANXC): Yes
- Induced by TSA alone? (ST14): Yes
- Induced by TSA alone? (STAT3): Yes
- Induced by TSA alone? (TERT): No
- Induced by TSA alone? (TIMP3): No
- Induced by TSA alone? (TJP2): No
- Induced by TSA alone? (TNF): No
- number of the 11 genes with aberrantly methylated CpG islands whose expression was induced (TSA alone): 4 genes
- Induced by TSA alone? (UCHL1): Yes
- Induced by TSA alone? (UCHL1 (Table 3)): Yes
- Induced by TSA alone? (WISP2): No
- Induced by TSA alone? (WIT-1): No
- Induced by TSA alone? (WNT7A): Yes
- Induced by TSA alone? (XAGE-1): Yes
- Induced by TSA alone? (XAGE-1 (Table 3)): Yes
- Induced by TSA alone? (activity-regulated cytoskeleton-associated protein (APC)): Yes
- Induced by TSA alone? (aik3): Yes
- Induced by TSA alone? (basic fibroblast growth factor (FGF)): Yes
- Induced by TSA alone? (cytovillin 2 (VIL2, ezrin)): No
- Induced by TSA alone? (granulocytemacrophage colony-stimulating factor (M11734)): Yes
- Induced by TSA alone? (interferon, alpha-inducible protein (NM_022873)): Yes
- Induced by TSA alone? (junction adhesion molecule (AF154005)): Yes
- Induced by TSA alone? (matrix metalloproteinase 8 (MMP3)): No
- Induced by TSA alone? (nucleotide-binding site protein 1 (AF298547)): Yes
- Induced by TSA alone? (p53-induced protein (PIGII)): No
- Induced by TSA alone? (reprimo): No
- Induced by TSA alone? (stratifin (14-3-3 sigma)): Yes
- Induced by TSA alone? (stromal antigen 3 (STAG5)): Yes
- Induced by TSA alone? (synovial sarcoma, X breakpoint 2 (AF257500)): Yes
- Induced by TSA alone? (testin): Yes
- Induced by TSA alone? (transketolase-like protein (X91817)): Yes
